Assays:
[1] = (§1) The drug is tested on WLS-027 corresponding to human gut metagenome with ENA study accession number: PRJEB37062 and ENA sample accession number: ERS12561744 for biotransformation under anaerobic condition. The drug concentrations were measured over 9 timepoints collected between 0 and 24 hours of incubation by liquid-chromatography-coupled mass spectrometry (LC–MS); details: 2 µM
[2] = human gut metagenome, 24 h, 2 µM
[3] = as §1, with “WLS-069” for “WLS-027”, “ERS12561748” for “ERS12561744”; details: 2 µM
[4] = human gut metagenome, 24 h, 2 µM; remark: listed apart in the source
[5] = human gut metagenome, 24 h, 2 µM; remark: listed apart in the source
[6] = as §1, with “Z-008” for “WLS-027”, “to” for “to human gut”, “ERS12561808” for “ERS12561744”; details: 2 µM
[7] = as §1, with “Z-002” for “WLS-027”, “rabbit” for “human”, “ERS12561802” for “ERS12561744”; details: 2 µM
[8] = human gut metagenome, 24 h, 2 µM; remark: listed apart in the source
[9] = as §1, with “Z-011” for “WLS-027”, “mouse” for “human”, “ERS12561811” for “ERS12561744”; details: 2 µM
[10] = human gut metagenome, 24 h, 2 µM; remark: listed apart in the source
[11] = as §1, with “WLS-039” for “WLS-027”, “ERS12561746” for “ERS12561744”; details: 2 µM
[12] = human gut metagenome, 24 h, 2 µM; remark: listed apart in the source
[13] = as §1, with “Z-014” for “WLS-027”, “rat” for “human”, “ERS12561814” for “ERS12561744”; details: 2 µM
[14] = human gut metagenome, 24 h, 2 µM; remark: listed apart in the source
[15] = as §1, with “Z-029” for “WLS-027”, “rat” for “human”, “ERS12561828” for “ERS12561744”; details: 2 µM
[16] = as §1, with “WLS-170” for “WLS-027”, “ERS12561762” for “ERS12561744”; details: 2 µM
[17] = human gut metagenome, 24 h, 2 µM; remark: listed apart in the source
[18] = as §1, with “WLS-220” for “WLS-027”, “ERS12561769” for “ERS12561744”; details: 2 µM
[19] = human gut metagenome, 24 h, 2 µM; remark: listed apart in the source
[20] = as §1, with “Z-006” for “WLS-027”, “mouse” for “human”, “ERS12561806” for “ERS12561744”; details: 2 µM
Note: call rule not given here.

| SMILES | Bacterial Biotransformation [1] | Bacterial Biotransformation [2] | Bacterial Biotransformation [3] | Bacterial Biotransformation [4] | Bacterial Biotransformation [5] | Bacterial Biotransformation [6] | Bacterial Biotransformation [7] | Bacterial Biotransformation [8] | Bacterial Biotransformation [9] | Bacterial Biotransformation [10] | Bacterial Biotransformation [11] | Bacterial Biotransformation [12] | Bacterial Biotransformation [13] | Bacterial Biotransformation [14] | Bacterial Biotransformation [15] | Bacterial Biotransformation [16] | Bacterial Biotransformation [17] | Bacterial Biotransformation [18] | Bacterial Biotransformation [19] | Bacterial Biotransformation [20] |
| --- | --- | --- | --- | --- | --- | --- | --- | --- | --- | --- | --- | --- | --- | --- | --- | --- | --- | --- | --- | --- |
| CC(O)(CS(=O)(=O)c1ccc(F)cc1)C(=O)Nc1ccc(C#N)c(C(F)(F)F)c1 (stereo not given) [BICALUTAMIDE] | Compound NOT metabolized | Compound NOT metabolized | Compound NOT metabolized | Compound NOT metabolized | Compound NOT metabolized | Compound NOT metabolized | Compound NOT metabolized | Compound NOT metabolized | Compound NOT metabolized | Compound NOT metabolized | Compound NOT metabolized | Compound NOT metabolized | Compound NOT metabolized | Compound NOT metabolized | Compound NOT metabolized | Compound NOT metabolized | Compound NOT metabolized | Compound NOT metabolized | Compound NOT metabolized | Compound NOT metabolized |
| CCCC1O[C@@H]2C[C@H]3[C@@H]4CCC5=CC(=O)C=C[C@]5(C)[C@H]4[C@@H](O)C[C@]3(C)[C@]2(C(=O)CO)O1 (stereo not given in full) [BUDESONIDE] | Compound metabolized | Compound metabolized | Compound metabolized | Compound NOT metabolized | Compound metabolized | Compound metabolized | Compound metabolized | Compound metabolized | Compound metabolized | Compound metabolized | Compound metabolized | Compound metabolized | Compound metabolized | Compound metabolized | Compound NOT metabolized | Compound metabolized | Compound metabolized | Compound metabolized | Compound metabolized | Compound NOT metabolized |
| O=C(NCc1ccccc1)OCCO [BURAMATE] | Compound NOT metabolized | Compound NOT metabolized | Compound NOT metabolized | Compound NOT metabolized | Compound NOT metabolized | Compound NOT metabolized | Compound NOT metabolized | Compound NOT metabolized | Compound NOT metabolized | Compound NOT metabolized | Compound NOT metabolized | Compound NOT metabolized | Compound NOT metabolized | Compound NOT metabolized | Compound NOT metabolized | Compound NOT metabolized | Compound NOT metabolized | Compound NOT metabolized | Compound NOT metabolized | Compound NOT metabolized |
| CCN(CC)CCOCCOC(=O)C1(c2ccccc2)CCCC1.O=C(O)CC(O)(CC(=O)O)C(=O)O [CARBETAPENTANE CITRATE] | Compound metabolized | Compound metabolized | Compound metabolized | Compound NOT metabolized | Compound metabolized | Compound NOT metabolized | Compound metabolized | Compound metabolized | Compound NOT metabolized | Compound NOT metabolized | Compound metabolized | Compound metabolized | Compound NOT metabolized | Compound metabolized | Compound NOT metabolized | Compound metabolized | Compound metabolized | Compound metabolized | Compound metabolized | Compound NOT metabolized |
| O=C(O)COCCN1CCN(C(c2ccccc2)c2ccc(Cl)cc2)CC1 (stereo not given) [CETIRIZINE] | Compound metabolized | Compound metabolized | Compound metabolized | Compound metabolized | Compound metabolized | Compound NOT metabolized | Compound metabolized | Compound metabolized | Compound NOT metabolized | Compound metabolized | Compound metabolized | Compound metabolized | Compound NOT metabolized | Compound metabolized | Compound NOT metabolized | Compound metabolized | Compound metabolized | Compound metabolized | Compound metabolized | Compound NOT metabolized |
| CN/C(=N/CCSCc1nc[nH]c1C)NC#N [CIMETIDINE] | Compound metabolized | Compound metabolized | Compound metabolized | Compound NOT metabolized | Compound NOT metabolized | Compound NOT metabolized | Compound NOT metabolized | Compound metabolized | Compound NOT metabolized | Compound NOT metabolized | Compound NOT metabolized | Compound metabolized | Compound NOT metabolized | Compound NOT metabolized | Compound NOT metabolized | Compound metabolized | Compound metabolized | Compound metabolized | Compound NOT metabolized | Compound NOT metabolized |
| Br.CN(C)CCCC1(c2ccc(F)cc2)OCc2cc(C#N)ccc21 (stereo not given) [CITALOPRAM HYDROBROMIDE] | Compound NOT metabolized | Compound metabolized | Compound metabolized | Compound NOT metabolized | Compound NOT metabolized | Compound NOT metabolized | Compound metabolized | Compound metabolized | Compound metabolized | Compound NOT metabolized | Compound NOT metabolized | Compound metabolized | Compound NOT metabolized | Compound metabolized | Compound NOT metabolized | Compound metabolized | Compound metabolized | Compound NOT metabolized | Compound NOT metabolized | Compound NOT metabolized |
| CN(C)CCC=C1c2ccccc2C=Cc2ccccc21 [CYCLOBENZAPRINE] | Compound metabolized | Compound metabolized | Compound metabolized | Compound metabolized | Compound NOT metabolized | Compound NOT metabolized | Compound metabolized | Compound metabolized | Compound NOT metabolized | Compound NOT metabolized | Compound metabolized | Compound metabolized | Compound NOT metabolized | Compound metabolized | Compound NOT metabolized | Compound metabolized | Compound metabolized | Compound metabolized | Compound metabolized | Compound NOT metabolized |
